Results taken from a melting point compilation (Tetko et al.; mined from patent text by program, amines drawn as free bases though some values may be those of a salt).

Row | Structure (SMILES) | melting point
1 | O=c1cc(COC2CCCCO2)occ1OCCCCBr (stereo not drawn) | 71.5 °C
2 | CC(C)C(NC(=O)OCc1ccccn1)C(=O)NC(Cc1ccccc1)C(O)C(Cc1ccccc1)NC(=O)C(NC(=O)OCc1ccccn1)C(C)C (stereo not drawn) | 155 to 156 °C
3 | COC(=O)Nc1cc(C)on1 | 136 to 137 °C
4 | Clc1ccc2c(NCCN3CCCCC3)ccnc2c1 | 148 to 151 °C
5 | CCn1cc(C(=O)O)c(=O)c2cc(Cl)c(N3CCOCC3)cc21 | 266 °C
6 | O=c1ccc2c([N+](=O)[O-])cccc2n1O | 205 °C
7 | C[C@H]1CN(C(=O)OC(C)(C)C)CCCN1S(=O)(=O)c1ccccc1[N+](=O)[O-] | 113 to 114 °C
8 | Cc1ccc(S(=O)(=O)NC(=O)C(Cl)Cc2cc(-n3nc(C)n(C(F)F)c3=O)c(F)cc2Cl)cc1 (stereo not drawn) | 267 to 269 °C
9 | CC(C)C(O)(Cn1cncn1)c1ccc(C#CI)cc1 (stereo not drawn) | 122 °C
10 | CS(=O)(=O)Oc1ccccc1S(N)(=O)=O | 131 to 132 °C
11 | CC(=O)c1ccc(-c2ccc(C(N)=NO)o2)cc1 | 197 to 199 °C
12 | CCCCCC#CCC(Cc1cccnc1)(C(=O)NO)S(=O)(=O)c1ccc(OC)cc1 (stereo not drawn) | 146 °C
13 | CC(=O)Nc1cc([N+](=O)[O-])ccc1O | 283 to 284 °C
14 | OCC(CO)Cc1cccc(Br)c1 | 61 to 63 °C
15 | CN(C)Cc1ccc(Cc2cnc(N[N+](=O)[O-])[nH]c2=O)cc1 | 214 to 217 °C
16 | Cc1ccc(S(=O)(=O)OC[C@@H]2NC(=O)[C@@H]2N=[N+]=[N-])cc1 (relative stereo) | 77 to 78 °C
17 | C[C@H](NC(=O)c1c(F)cccc1[N+](=O)[O-])C(=O)O | 142 to 144 °C
18 | C=CCC(CC=C)(C(=O)O)S(=O)(=O)c1ccc(OC)cc1 | 114 to 116 °C
19 | c1ccc(P(c2ccccc2)c2cccc3c2-c2c(cccc2P(c2ccccc2)c2ccccc2)OCCCO3)cc1 | 85 °C
20 | NC(=S)c1c[nH]cc1-c1cccc(Cl)c1Cl | 128 to 132 °C
21 | CCC1(CC)C(=O)N(c2ccc(C#N)c(C(F)(F)F)c2)C(=S)N1C | 126 to 127 °C
22 | Cc1ccc2c(c1)C(=O)CC21CNC(=O)C1 (stereo not drawn) | 162 to 164 °C
23 | CCC(CC)n1cc(C)nc(N2CCc3cc(OC)cc(C)c32)c1=O | 138 to 140 °C

Row | Structure (SMILES) | melting point
24 | CC(C)(C)NC1CCCCC1O (stereo not drawn) | 42 to 44 °C
25 | Cc1ccc(S(=O)(=O)C[N+](=O)[O-])s1 | 73 to 74 °C
26 | Cc1cc(S)n2nc(CN=[N+]=[N-])nc2n1 | 214 to 215 °C
27 | Cc1cc(S(=O)(=O)NC(=O)c2cn3cc(C(F)(F)F)cc(Cl)c3n2)c(C)cc1C#N | 228 to 229 °C
28 | CCOC(=O)c1ccc(N(NC(C)=O)C(=O)OC(C)(C)C)cc1 | 105 to 108 °C
29 | CC(C)(S)[C@@H]1C[C@H](CS)C(=O)N1 (relative stereo) | 159 to 161 °C
30 | CCOC(=O)c1ncn2c1CN=C(c1ccccc1)c1cc(I)ccc1-2 | 221 to 222 °C
31 | CCC(=O)C(=C1NCCCS1)[N+](=O)[O-] | 77.5 to 79.5 °C
32 | CON(C)C(=O)c1ocnc1C | 59 to 60 °C
33 | CC(C#N)Oc1ccc(Oc2ccc(C(F)(F)F)cc2)cc1 (stereo not drawn) | 53 to 56 °C
34 | CCCCCCCCCCCCCCOc1cccc(C(=O)Cl)c1 | 26 to 27 °C
35 | CS(=O)c1nsc(Cl)n1 (stereo not drawn) | 72 °C
36 | [N-]=[N+]=NC[C@H]1CN(c2cccc(F)c2)C(=O)O1 | 81 to 82 °C
37 | O=C(N1CCc2ccc(S(=O)(=O)F)cc2C1)C(F)(F)F | 99 to 103 °C
38 | Cc1c(F)cc(C(=O)O)cc1F | 153 °C
39 | Cc1nc(C=Cc2nc3ccc(F)cc3c(=O)n2-c2ccccc2Cl)cs1 | 231 to 232 °C
40 | CCCCCCCCCCCCCCCCOCC1=CCCO1 | 30.5 to 31.5 °C
41 | C1CNCCNCCNCCNCCN1 | 92 to 103 °C
42 | CNC(=O)C1=CC(C)(CF)Oc2ccc([N+](=O)[O-])cc21 (stereo not drawn) | 171 to 173 °C
43 | CN(Cc1ccc(Cl)cc1)c1ccc(S(=O)CCCCCC(=O)O)cc1 (stereo not drawn) | 109 to 111 °C
44 | O=C(C=Cc1cccc(F)c1)c1cnc2sc3c(n12)CCCCC3 | 176 to 177 °C
45 | OC(c1ccc(Br)cc1)c1ccc(Br)cc1 | 112 to 113 °C

Now from value to compound:

Row | melting point | Structure (SMILES)
46 | 212 to 215 °C | N#Cc1cccn2cc(-c3ccc(C(=O)NCCC(=O)O)cc3)nc12
47 | 190 °C | CC#CCOc1ccc(S(=O)(=O)C(C(=O)NO)c2ccc(OC)cc2)cc1 (stereo not drawn)
48 | 97 to 98 °C | CC1(c2ccc(F)cc2)OC(C=Cc2ccsc2)=CC1=O (stereo not drawn)
49 | 199 to 200 °C | CS(=O)(=O)c1ccc(/C(=C(\CC(=O)O)C(=O)O)c2ccc(Cl)cc2)cc1
50 | 113 to 116 °C | CCC=C(c1ccccc1N1CCCC(C)(C)C1)C(C(N)=O)c1ccc(C(=O)OCC)cc1 (stereo not drawn)
51 | 176 to 178 °C | Oc1c(Br)cc2oc3ccccc3c2c1Br
52 | 176 to 178 °C | COc1ccc2sc(Nc3ccc(OCCCl)cc3)nc2c1
53 | 253 to 255 °C | O=S1(=O)CCN2C=CC=C(c3ccc(Oc4ccc(C(F)(F)F)cc4)cc3)C2=N1
54 | 38 to 39 °C | Cc1nc(C(=O)Cl)c(CCc2ccccc2)o1
55 | 111 to 113 °C | CC(C)C[C@H](NC(=O)c1ccc2c(c1)Nc1ccccc1S2)C(=O)N[C@H]1CCOC1OC(=O)CC(C)(C)C (stereo partly drawn)
56 | 34 °C | CCCCCCCCCCCCc1ccc(NC2CCCc3ccccc32)cc1 (stereo not drawn)
57 | 233 to 234 °C | Cc1cc(Br)cnc1CCCCNC1=NS(=O)(=O)c2cc(-c3ccccn3)ccc21
58 | 90 to 93 °C | CCOC(=O)CCC(CCCCNS(=O)(=O)c1ccc(Cl)cc1)CCOc1cccnc1 (stereo not drawn)
59 | 201 to 203 °C | O=C(O)CS(=O)(=O)c1ccc2c(-c3ccc(Cl)cc3)noc2c1
60 | 204 to 207 °C | O=C(N[C@H](Cc1ccc(F)cc1)C(=O)N1CCC(O)CC1)c1cc2ccccc2[nH]1
61 | 75 to 76 °C | COc1cc(C)nc(Nc2ccccc2)n1
62 | 115 to 122 °C | Cc1cc(C(F)(F)F)nn1CC(=O)N1CCC(c2nc(C3=NOC(c4ccccc4Cl)C3)cs2)CC1 (stereo not drawn)
63 | 91 to 93 °C | CC(=O)CN1C(=O)c2ccccc2C12OCCO2
64 | 143 to 144 °C | COc1ccc(CNc2nc(SC)ncc2C(=O)NCc2ccccn2)cc1Cl
65 | 154 to 155 °C | Cc1nc(-c2ccccc2)nc(NCC(=O)N(C)c2ccccc2)c1Cl

Row | melting point | Structure (SMILES)
66 | 66 to 67 °C | CCCn1cnc(NC)c1C(=O)NCCCCCCOc1ccc(Cl)cc1
67 | 162 to 164 °C | CN(C1c2cc(OCc3ccccc3)ccc2OC(C)(C)C1O)S(C)(=O)=O (stereo not drawn)
68 | 192 to 194 °C | CCC(CC)CNc1cccc(-c2ccnc3c(C(=O)c4cccs4)cnn23)c1
69 | 77 to 82 °C | COC(=O)Cc1cccc(CCN(C)CCCC(C#N)(c2ccc(OC)c(OC)c2)C(C)C)c1 (stereo not drawn)
70 | 110 to 115 °C | Cc1sc(N)nc1-c1ccc(CCN2CCN(c3cccc(C(F)(F)F)c3)CC2)cc1
71 | 102 to 104 °C | Cc1ccc(-c2ccccc2C(=O)NC(C)C#N)cc1 (stereo not drawn)
72 | 170 to 172 °C | CN1CCCC(COc2ccc(C(=O)NN)cc2)C1 (stereo not drawn)
73 | 148 to 149 °C | CCOP(=O)(/C=C/c1cn(-c2ccccc2)nc1OCc1ccc(OCc2nc(-c3cccc(C(=O)O)c3)oc2C)c(OC)c1)OCC
74 | 87 to 89 °C | N#Cc1ccccc1OCCCCC(=O)O
75 | 43 to 45 °C | CCOC(=O)C(CC)Oc1ccccc1C(C)=O (stereo not drawn)
76 | 184 to 186 °C | Cc1ccc(C=NC2=NN(c3ccc4ccccc4c3)CC2)cc1
77 | 81 to 85 °C | COc1ccc(S(=O)(=O)C2(Cc3ccccc3)SC(=O)N(CC(=O)NO)C2=O)cc1 (stereo not drawn)
78 | 99 to 101 °C | O=C(c1c[nH]nc1-c1ccccc1)C(CCN1CCC(O)(c2ccccc2)CC1)c1ccc(Cl)c(Cl)c1 (stereo not drawn)
79 | 114 to 116 °C | CC(=O)Nc1ccc(OCC2CCC=CO2)cc1 (stereo not drawn)
80 | 218 to 220 °C | Cc1cc(Cl)nnc1-c1ccc(C#N)cc1
81 | 220 to 223 °C | CC(=O)NC(C(=O)O)C1c2ccccc2CCc2ccccc21 (stereo not drawn)
82 | 176 °C | Cc1cc(Cl)cc(C(=O)Nc2cccc(Cl)n2)n1
83 | 136 to 137 °C | COc1cc2c(Nc3ccc(Cl)cc3F)ncnc2cc1OCCCNC(=O)OCC(C)C
84 | 223 to 225 °C | Cc1c(SCCN2CCOCC2)ccnc1CSc1nc2ccccc2n1CC(=O)O
85 | 150 to 152 °C | Cc1cccc(OCC2=NCCN2C(=O)Nc2ccccc2)c1C

Row | melting point | Structure (SMILES)
86 | 95 to 97 °C | CN(C)CCCOc1cnc(-c2cccc(CO)c2)nc1
87 | 81 to 83 °C | COCCOc1ccnc(NCc2ccccc2)c1[N+](=O)[O-]
88 | 218 to 219 °C | CC(=O)c1c(C)c(NC(=O)CC(C)(C)C)c(C)c2c1SCC2c1ccc(C(C)C)cc1 (stereo not drawn)
89 | 142 to 144 °C | CC(=O)N1CCc2cc(S(=O)(=O)n3c(COC(C)(C)C(=O)O)cc4cc(Cl)ccc43)ccc21
90 | 222 to 224 °C | Clc1cccc(CSc2ccncc2)c1
91 | 195 to 196 °C | O=c1oc(-c2ccccc2)cc(O)c1CCCc1ccccc1
92 | 117 to 118 °C | COc1ccc(COC(=O)C(=CNc2ncccc2OC(=S)N(C)C)C(=O)OCc2ccc(OC)cc2)cc1
93 | 125 to 127 °C | S=C1Nc2ccccc2N2CCN(Cc3ccccc3)CCN12
94 | 189 to 193 °C | CN(C)C1(c2ccccc2Cl)C(=O)N(Cc2ccc([N+](=O)[O-])cc2)c2ccc(Cl)cc21 (stereo not drawn)
95 | 52 to 54 °C | OCc1cccc(Nc2nc(Oc3ccccc3)nc(Oc3ccccc3Cl)n2)c1
96 | 156 to 157 °C | O=C1c2c(O)cccc2C(Sc2ccccc2)c2cccc(O)c21
97 | 140 to 142 °C | CC1=C(CCN(O)C(N)=O)/C(=C/c2ccc(S(C)(=O)=O)cc2)c2ccccc21
98 | 141 °C | CCN(CC)C(=O)Cc1ccccc1OC
99 | 120 to 121 °C | CCOC(=O)C1=C(C)NC(C)=C(C(=O)OCC)C1c1ccccc1Cl
100 | 107 to 110 °C | CC(C)c1nc(C(C)C)c(CO)c(-c2ccc(F)cc2)c1/C=C/c1ccccc1
101 | 201 to 203 °C | O=C1CC(c2cccc(-n3ccnc3)c2)=Nc2ccc(C#Cc3ccccc3F)cc2N1
102 | 185 to 186 °C | COc1ccc(N2CCN(Cc3n[nH]c4c(I)cccc34)CC2)cc1
103 | 171 to 173 °C | Cc1c(C=NO)c2ccccc2n1-c1ccc(OCc2ccccc2)cc1
